Calls of active or inactive are those of the source. No rule for the calls is given here.

A word on the IC50: it is the concentration that inhibits the measured activity by half.

For the test, the target named is RanGTP-importin-beta complex (human Ran / KPNB1). The experiment in a line: Ran–importin-beta interaction inhibitors, confirmation, biochemical, FRET, CFP/YFP, cell-free homogeneous (AID 2823). The conditions noted are these: CFP-Ran/YFP-importin-beta FRET ratio.
For `OCCN1CCN(c2nc(-c3ccccc3)c3cc(Cl)ccc3n2)CC1`, the IC50 is 22.2 µM. As to `Cc1cc(C)c(S(=O)(=O)N(C)CC(N)=O)c(C)c1`, the IC50 is > 50 µM (inactive). With `Cc1ccc2nc(NCCNC(=O)c3ccccc3)c(C#N)cc2c1` the figure was 3.62 µM; with `C=CCn1c(=O)c(C(=O)Nc2ccc(C)cc2)c(O)c2ccccc21`, > 50 µM (inactive); with `CC(C)CN(Cc1c(O)ccc2ccccc12)CC(C)C`, > 50 µM (inactive). For `CCOC(=O)c1ccc(NC(=O)CSc2nnc(C3CCCCC3)n2C)cc1` the value was > 50 µM (inactive); for `Cc1ccc(S(=O)(=O)N2CCCN(c3nc4cc(C)ccc4cc3C#N)CC2)cc1`, 29.8 µM.

Turning to `CCN(CC)S(=O)(=O)c1ccc(OC)c(NC(=O)C2CC(=O)N(c3ccc(C)cc3)C2)c1` (stereo unspecified), the IC50 was > 50 µM (inactive).

In the case of `CC(=O)Nc1cc(C(=O)N(C)Cc2ccco2)ccc1Sc1ccc(Cl)cc1`, the IC50 was > 50 µM (inactive).

Turning to `CC(=O)N1CCc2c(sc(NC(=O)CCS(=O)(=O)c3ccc(C)cc3)c2C(N)=O)C1`, the IC50 was 30.7 µM. For `c1ccc(-n2nnnc2-c2cnc(-c3cccnc3)nc2-c2cccs2)cc1`, the IC50 was > 50 µM (inactive). Take `Cc1ccc2nc(/C(C#N)=C/c3ccc(O)c(O)c3)[nH]c2c1`: the IC50 is > 50 µM (inactive). For `CC1=C(C(=O)OC(C)C)C(c2cccnc2)C2=C(CC(C)(C)CC2=O)N1` (stereo unspecified) the value was 20.5 µM; for `CCOC(=O)c1c(NC(=O)CSc2nnc3c(n2)[nH]c2ccccc23)sc2c1CCN(C)C2`, > 50 µM (inactive); for `Cc1c(S(=O)(=O)N2CCCC(C(=O)O)C2)cnn1C` (stereo unspecified), > 50 µM (inactive).

`Cc1onc(-c2ccccc2)c1C(=O)Nc1cccc2nsnc12`: the IC50 was 33.3 µM. For `CCS(=O)(=O)c1ccc(S(=O)(=O)CC)s1` the value was > 50 µM (inactive); for `COc1ccc(C(=O)N/N=C/c2c(CO)cnc(C)c2O)cc1`, 3.13 µM; for `O=C(O)c1ccccc1P(=O)(c1ccccc1)c1ccccc1`, > 50 µM (inactive). For `COc1ccc(N2Cc3ccccc3/C2=N\C(=O)Nc2ccccc2)cc1`, the IC50 was > 50 µM (inactive). With `CCOC(=O)c1c(/N=C/c2ccc(C)cc2O)sc2c1CCN(C)C2` the figure was > 50 µM (inactive); with `Oc1ccc(-c2[nH]ncc2-c2cccc3cccnc23)c(O)c1`, > 50 µM (inactive).

For the molecule `COC(=O)C1=C(C)NC(C)=C(C(=O)OC)C1C(=O)OC(C)C(=O)c1ccccc1` (stereo unspecified), the IC50 was > 50 µM (inactive). Regarding `COc1cc(/C=C(\C#N)C(=O)Nc2cccc3ncccc23)cc(OC)c1OC`, the IC50 is > 50 µM (inactive). With `COc1ccc(CCn2c(C)nc3ccccc3c2=O)cc1OC` the figure was > 50 µM (inactive); with `COc1ccc(C(=O)Oc2c(CN3CCOCC3)cc(Cl)c3cccnc23)cc1`, > 50 µM (inactive).

For `N#Cc1c(N)nc2c(c1-c1ccccc1)CCC2`, the IC50 is 14.3 µM. `Cc1ccc(S(=O)(=O)Nc2nc3ccccc3nc2NCc2ccco2)cc1`: the IC50 is 18.2 µM. In the case of `N#Cc1c(N)n(CCNC(=O)c2ccc(Cl)cc2)c2nc3ccccc3nc12`, the IC50 was 7.21 µM. For `CNC(=O)c1c(C)[nH]c(=S)c(C#N)c1-c1ccco1` the value was > 50 µM (inactive); for `COCCNC(=O)c1cnn2c(C(F)F)cc(-c3ccc(C)cc3)nc12`, 37.8 µM. With `COC(=O)c1cc(NC(=O)c2ccc([N+](=O)[O-])cc2)c(=O)oc1C` the figure was > 50 µM (inactive); with `CCN(CC)Cc1c(CC(C)C)oc(C)c1C(=O)O`, > 50 µM (inactive). For `COc1cc(SC)ccc1C(=O)Nc1nc(C)cs1` the value was > 50 µM (inactive). On to `COc1ccc(C(=O)c2cc3ccc(O)cc3oc2=O)cc1`, for which the IC50 is 16.4 µM. Take `COCCNc1cc(C)nc2cc(-c3ccc(C)cc3)nn12`: the IC50 was 5.2 µM.

As to `Cc1c(OCC(=O)NCc2ccncc2)ccc2c3c(c(=O)oc12)CCC3`, the IC50 was > 50 µM (inactive). Regarding `CCc1ccc(CNc2ccc3c(c2)ncn3CC)cc1`, the IC50 was > 50 µM (inactive). Consider `COc1ccc(-c2nc3ccc(C(=O)NCCCN4CCOCC4)cc3nc2-c2ccc(OC)cc2)cc1`, for which the IC50 was 46.4 µM. With `O=C(O)/C=C/C(=O)Nc1ccc2c(c1)NC(=O)CO2` the figure was > 50 µM (inactive); with `CCN1CCc2c(sc(N)c2C#N)C1`, 16.5 µM.

Turning to `COc1ccc(CCNC(=O)c2cc3c(=O)n4ccccc4nc3n(CC3CCCO3)c2=N)cc1OC` (stereo unspecified), the IC50 was 21.3 µM. On to `COc1ccc(C(=O)Nc2sc3c(c2C#N)CCN(C(C)=O)C3)cc1`, for which the IC50 is > 50 µM (inactive).

For the molecule `CC(=O)c1cccc(OCC(=O)N(C)CC(=O)Nc2ccc(F)cc2)c1`, the IC50 was > 50 µM (inactive).

For `Cc1ccc(-c2c(C(=O)N/N=C/c3ccc4c(c3)OCO4)nnn2-c2nonc2N)cc1`, the IC50 was > 50 µM (inactive). For the molecule `N#Cc1c(N)nc2c(c1-c1ccc(F)cc1)CCC2`, the 50% inhibitory concentration (IC50) was 11 µM. Consider `NS(=O)(=O)c1ccc(N=Nc2c[nH]c(=O)c(O)c2)cc1`, for which the IC50 is > 50 µM (inactive).

In the case of `COc1cc(OC)cc(-c2cc3nc(C)cc(N4CCN(C(=O)c5ccco5)CC4)n3n2)c1`, the IC50 was 4.91 µM. For `C=CCNC(=O)c1cccc(OC2CCN(CC(C)(C)C)CC2)c1` the value was > 50 µM (inactive); for `Cc1c(NC2=CC(=O)CCC2)c(=O)n(-c2ccccc2)n1C`, > 50 µM (inactive). For `CN1CCN(c2ccc(S(=O)(=O)N3CCCCC3)cc2NC(=O)Cc2ccc(Cl)cc2)CC1` the value was > 50 µM (inactive).

For `COc1ccc(OCC(=O)NNc2c3ccccc3nc3ccccc23)cc1`, the IC50 was > 50 µM (inactive). As to `COc1cc(/C(O)=C(\C#N)c2nc3ccccc3[nH]2)cc(OC)c1OC`, the IC50 is 15.5 µM. With `CC1CN(Cc2cc(=O)oc3cc(O)ccc23)CC(C)O1` (stereo unspecified), the IC50 is 19 µM. As for `CCOC(=O)/C(C#N)=C\c1ccc(N2CCN(C)CC2)cc1`, the IC50 is 15 µM.

Turning to `Nc1c(C(=O)NC2CCCC2)c2nc3ccccc3nc2n1/N=C/c1ccco1`, the IC50 is 14.3 µM. On to `Cc1cc2oc3cc(NCCC4CCCN4C)ccc3c(=O)c2cc1C` (stereo unspecified), for which the IC50 was 8.12 µM. With `NNc1nc2sc3c(c2c(=O)n1C1CCCCC1)CCN(Cc1ccccc1)C3` the figure was 2.69 µM. As to `COC(=O)c1ccc(NC(=O)C(=O)N2CCN(C(=S)Nc3ccccc3OC)CC2)cc1`, the IC50 is > 50 µM (inactive). Take `O=C(NNC(=S)NC(=O)c1ccccc1[N+](=O)[O-])c1ccccc1O`: the IC50 is > 50 µM (inactive).

In the case of `O=[N+]([O-])c1ccc(CNC2CCCc3ccccc32)cc1` (stereo unspecified), the IC50 is > 50 µM (inactive). With `CCOc1ccc(N2C(=O)C3C4C=CC(CC4)C3C2=O)c([N+](=O)[O-])c1` (stereo unspecified) the figure was > 50 µM (inactive). For `Cc1cc(C)c2c(N)c(C(=O)NN3CC(=O)N(c4ccccc4F)CC3=O)sc2n1` the value was > 50 µM (inactive). Regarding `CN1CCCN(Cc2cccc3ccccc23)CC1`, the IC50 is > 50 µM (inactive).

Consider `CC(C)S(=O)(=O)c1nsc2nc(=O)c(/C=C3\C=Nc4ccccc43)c(N)n12`, for which the IC50 was 7.97 µM. For the molecule `Cc1cccc(-n2c(O)c(/C=C/C=Nc3ccccc3)c(=O)[nH]c2=O)c1`, the IC50 is 3.6 µM.

For the origin of these results see PubChem BioAssay AID2823 (Broad Institute, 2010).
